Source: patent US20250346582A1, “SPLEEN TYROSINE KINASE INHIBITORS AND METHODS OF USE THEREOF” (THE BOARD OF TRUSTEES OF THE UNIVERSITY OF ILLINOIS, priority 2022, published 2025)

Columns and labels:
[1] = tested on: BCR signaling axis (Syk-BLNK-PLCγ2); assay: Western blot of BCR signaling axis in Raji B lymphocytes; assay type: cell-based; conditions: Raji B cells
Procedure: Cells were seeded at a density of 3.0×10^5 cells/well prior to incubation with inhibitors. Cells were incubated with 1-5 μM of Syk inhibitors overnight and stimulated with different antibodies: IgG2 for AML cells, IgM for Raji B cells, and OKT3 (Biolegend) for Jurkat cells. The cells were lysed in NP40 lysis buffer (50 mM Tris, pH 7.5, 150 mM NaCl, 1 mM EDTA, 1% NP40, 10% glycerol, 10 mM NaF, 10 mM Na3VO4, and the protease inhibitor cocktail) at 4° C. and the cell debris was removed by centrifugation. Samples were analyzed by SDS-PAGE. Proteins were separated and transferred to Immobilon-P polyvinylidene difluoride membrane (Millipore Sigma). The membrane was blocked with 5% bovine serum albumin for 1 h and incubated overnight at 4° C. with various antibodies (1:1000 dilution for all antibodies). After the unbound antibodies were removed by washing with 0.1% Tris buffer saline with 0.1% Tween20, the membranes were incubated with the horseradish peroxidase secondary antibody (1:5000 dilution) for 1 h at room temperature. The membranes were washed three more times with 0.1% Tris buffer saline with 0.1% Tween20 to remove the unbound horseradish peroxidase secondary antibody before imaging. The chemiluminescence intensity of protein bands in the gel was analyzed and documented by the Azure 500Q Imaging System.

[2] = tested on: patient AML cells; assay: Colony growth assay of patient-derived AML cells; assay type: cell-based; conditions: primary AML cells from 4 patients
Procedure: Primary samples were obtained from an existing HEMBANK at UIC under an IRB approved research protocol (protocol #2021-0723). Cells were processed and treated with inhibitors as reported previously^75. For primary AML samples, mononuclear cells isolated by Ficoll density centrifugation were utilized. mononuclear cells were treated in culture at a density of 0.5×10^6/ml in StemSpan with CD34 expansion supplement (Stemcell Technologies) for 24 h and then harvested for immunoblotting assays. In parallel 2×10^4 cells were plated in triplicate for each treatment condition in Methoccult H4434 (Stem Cell Technologies) in the presence of drug. At days 12-14, colonies were manually enumerated under light microscopy and normalized to DMSO control for each individual sample due to interpatient variability in colony forming activity. Normalized colony forming units for pooled treated and untreated samples (n=4) were compared using unpaired 2-tailed t test. p<0.05 was considered statistically significant.

[3] = target: T1, scaffolding function of Syk (Homo sapiens, UniProt P43405); assay: Co-immunoprecipitation with Syk, naïve MV4-11 cells; assay type: cell-based; conditions: 5 μM
T1 construct: host or cells: MV4-11 AML cells (naive and entospletinib-resistant)
Procedure: MV-4-11 cells were collected by centrifugation, washed twice with phosphate phosphate-buffered saline (PBS) and resuspended in the immunoprecipitation (IP) buffer (50 mM HEPES, pH 7.4, 150 mM NaCl, 1 mM MgCl2, 1 mM EGTA, and 0.25 mM GTP) with 0.2-0.5% Triton X-100 and a protease inhibitor mix (Sigma-Aldrich). Lysates were prepared after 5 min of incubation on ice by repeated pipetting and centrifugation for 10 min at 12,000 g and at 4° C. For immunoprecipitation, the SYK-specific antibody was immobilized onto 100 μl Dynabeads/protein A (ThermoFisher) and the excess antibody was washed away by placing the tube in a DynaMag magnet and removing the supernatant. The resuspended beads were then incubated with the cell extract supernatant containing 500 μg of proteins for 1 h at 4° C. The immunoprecipitates were rinsed three times with the IP buffer and eluted with 30 μl of the sample buffer containing sodium dodecyl sulfate (SDS). For detection of proteins in total extracts (i.e., Input), 30 μg of the sample was loaded in each gel lane for western blot analysis.

[4] = tested on: entospletinib-resistant MV4-11 cells; assay: XTT cell proliferation assay, entospletinib-resistant MV4-11 cells; assay type: cell-based; conditions: Homo sapiens, read-out: IC50, inhibition of proliferation (XTT assay)
Procedure: Then the concentration was maintained at 5 μM.
(§1) MV4-11 or HL-60 cells were seeded into a clear-bottom 96-well plate containing varying concentrations of inhibitors in the optimal growth media described above and the mixtures were incubated for 16 h. Cells were then treated with a mixture of XTT-labeling reagents and the electron coupling reagents according to the manufacturer's protocol (Roche). After 4 h, the absorbance values at 475 nm and at 660 nm were simultaneously measured by Synergy™ Neo spectrofluorometer at 25° C. Cells with the growth media was used for background correction.

[5] = tested on: MV4-11 cells; assay: XTT cell proliferation assay, MV4-11 cells; assay type: cell-based
Procedure: as §1

[6] = target: T2, Syk-cSH2 E164D (Homo sapiens, UniProt P43405, E164D); assay: Fluorescence quenching vesicle binding assay, Syk-cSH2 E164D mutant; conditions: up to 5 μM; POPC/POPS/PIP3/dabsyl-PE vesicles
T2 construct: polyhistidine (N); made in house; host or cells: Escherichia coli BL21 (DE3) pLysS
Procedure: The membrane-binding assay is based on fluorescence quenching of EGFP fused to a SH2 domain by a dark quencher containing lipid, dabsyl-PE, incorporated in lipid vesicles. The plate reader assay was performed using the Synergy™ Neo spectrofluorometer at 25° C. Nontreated black polystyrene 96-well plates (Corning) were used. Protein (10-50 nM) with the increasing concentration of vesicles with a given lipid composition in 20 mM Tris buffer, pH 7.4, containing 0.16 M NaCl was added to each row of wells and the EGFP fluorescence emission at 516 nm was measured with excitation set at 485 nm. Z′ factor for the assay system was determined as described^74. Imax and IC50 values of inhibitors were determined using the equation, I=Imax/(1+IC50/[I]) where I and [I] indicate % inhibition and inhibitor concentration, respectively. The average and standard deviation values were obtained from triplicate determinations.

[7] = tested on: Raji B cells; assay: Cell viability assay (CellTiter-Glo), Raji cells; assay type: cell-based; conditions: 0.5-5 μM
Procedure: All cell viability assays were conducted in a white, flat-bottom, 96-well tissue culture plate (Corning). The Raji cells were seeded at a density of 3.0×10^5 cells/well 24 h prior to the incubation with the inhibitor. Varying concentrations of WC36 (or DMSO) was then added to each well and the plates were incubated at 37° C. and at 5% CO2 for 72 h. Cell viability was quantified with the CellTiter-Glo reagent. Growth media were removed by aspiration and replaced with 100 μl fresh media and 100 μl CellTiter-Glo reagent. The plates were then gently shaken for 2 min and incubated at 25 C.° for additional 8 min. The luminescence was measured using Synergy™ Neo spectrofluorometer at 25 C.°. The luminescence value at each WC36 concentration was normalized against that without WC36. DMSO with the same volume as the WC36 solution was used as negative controls.

[N-]=[N+]=C(C(=O)OC1CCCCC1)C(Nc1ncccn1)c1ccc[nH]1 (racemic) [WC38, Cyclohexyl 2-diazo-3-(pyrimidin-2-ylamino)-3-(1H-pyrrol-2-yl)propanoate]
effect on phosphorylation of BCR signaling proteins (Syk, BLNK, PLCγ2) [1]: effectively suppressed phosphorylation of all BCR signaling proteins

[N-]=[N+]=C(C(=O)OC1CCCCC1)C(Nc1ncccn1)c1c[nH]c2ccccc12 (racemic) [WC36, Cyclohexyl 2-diazo-3-(1H-indol-3-yl)-3-(pyrimidin-2-ylamino)propanoate]
suppression of colony forming activity [2]: statistically significant suppression of colony forming activity | suppression of the scaffolding function of Syk (co-precipitation) [3]: greatly suppressed the scaffolding function of Syk | IC50 [4]: 500 ± 10 nM | effect on phosphorylation of BCR signaling proteins (Syk, BLNK, PLCγ2) [1]: effectively suppressed phosphorylation of all BCR signaling proteins | inhibition of cell proliferation (XTT assay) [5]: modestly more active than WC38 and entospletinib | inhibition of membrane binding of Syk-cSH2 E164D [6]: not inhibited | effect on cell viability [7]: minimal effect on cell viability

[N-]=[N+]=C(C(=O)OC1CCCCC1)C(Nc1ncccn1)c1ccco1 (racemic) [WC35, Cyclohexyl 2-diazo-3-(furan-2-yl)-3-(pyrimidin-2-ylamino)propanoate]
effect on phosphorylation of BCR signaling proteins (Syk, BLNK, PLCγ2) [1]: effectively suppressed phosphorylation of all BCR signaling proteins | inhibition of cell proliferation (XTT assay) [5]: modestly more active than WC38 and entospletinib
